US8895504B2, “Amylin derivatives” (priority 2008, dated 2014)
*1 amine or outer side, *2 acyl side, *3 side chain or, on linkers, in order; H or OH if unused. Where a SMILES comes first, the peptide text is derived from it. Bridges are numbered along the chain shown (N, C = ends). The star is where a group is joined. C20 diacid = O=C(O)CCCCCCCCCCCCCCCCCCC(=O)*; γGlu = O=C(O)[C@H](CCC(=O)[*:2])N[*:1]; Adipoyl = O=C(CCCCC(=O)[*:2])[*:1]

molecular target: T1, Amylin 3(a) receptor (human calcitonin receptor (CTa) and RAMP-3) (Homo sapiens, UniProt O60896+P30988); experiment: Luciferase assay (III), BHK Amylin 3(a)//CRE-luc cells; assay type: cell-based; settings: BHK cells with Amylin 3(a) receptor and CRE luciferase reporter, 4 hours incubation; read-out: Potency Luciferase
T1 construct: expressed in transfected cells; host or cells: BHK570 cells, stably transfected with a CRE-luciferase reporter
Text: It has previously been published (Poyner D R et al 2002, Pharmacological Reviews 54(2) 233-246) that activation of Amylin receptors (coexpression of Calcitonin receptor and receptor activity modifying peptides RAMPs) by Amylin leads to an increase in the intracellular concentration of cAMP. Consequently, transcription is activated at promoters containing multiple copies of the cAMP response element (CRE). It is thus possible to measure Amylin activity by use of a CRE luciferase reporter gene introduced into BHK cells also expressing an Amylin receptor.
2. Construction of an Amylin 3(a)/CRE-luc Cell Line
A BHK570 cell line stably transfected with the human calcitonin receptor (CTa) and a CRE-responsive luciferase reportergene. The cell line was further transfected with RAMP-3, using standard methods. This turns the Calcitonin receptor into an Amylin 3(a) receptor. Methotrexate, Neomycin, and Hygromycin are selection markers for luciferase, the Calcitonin receptor, and RAMP-3, respectively.
3. Amylin Luciferase Assay
To perform activity assays, BHK Amylin 3(a)//CRE-luc cells were seeded in white 96 well culture plates at a density of about 20,000 cells/well. The cells were in 100 μl growth medium (DMEM with 10% FBS, 1% Pen/Strep, 1 mM Na-pyruvate, 250 nM Methotrexate, 500 μg/ml Neomycin, and 400 μg/ml Hygromycin). After incubation overnight at 37° C. and 5% CO2, the growth medium was replaced by 50 μl/well assay medium (DMEM (without phenol red), Glumamax™, 10% FBS, and 10 mM Hepes, pH 7,4). Further, 50 μl/well of standard or sample in assay buffer were added. After 4 hours incubation at 37° C. and 5% CO2, the assay medium with standard or sample were removed and replaced by 100 μl/well PBS. Further, 100 μl/well LucLite™ was added. The plates were sealed and incubated at room temperature for 30 minutes. Finally, luminescence was measured on a TopCounter (Packard) in SPC (single photon counting) mode.

T1 sequence (O60896 24-148): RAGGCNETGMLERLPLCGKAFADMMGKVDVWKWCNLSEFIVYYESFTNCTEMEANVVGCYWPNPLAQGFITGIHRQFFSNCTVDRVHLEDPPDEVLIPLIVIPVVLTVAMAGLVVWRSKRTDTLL
T1 sequence (P30988 25-474): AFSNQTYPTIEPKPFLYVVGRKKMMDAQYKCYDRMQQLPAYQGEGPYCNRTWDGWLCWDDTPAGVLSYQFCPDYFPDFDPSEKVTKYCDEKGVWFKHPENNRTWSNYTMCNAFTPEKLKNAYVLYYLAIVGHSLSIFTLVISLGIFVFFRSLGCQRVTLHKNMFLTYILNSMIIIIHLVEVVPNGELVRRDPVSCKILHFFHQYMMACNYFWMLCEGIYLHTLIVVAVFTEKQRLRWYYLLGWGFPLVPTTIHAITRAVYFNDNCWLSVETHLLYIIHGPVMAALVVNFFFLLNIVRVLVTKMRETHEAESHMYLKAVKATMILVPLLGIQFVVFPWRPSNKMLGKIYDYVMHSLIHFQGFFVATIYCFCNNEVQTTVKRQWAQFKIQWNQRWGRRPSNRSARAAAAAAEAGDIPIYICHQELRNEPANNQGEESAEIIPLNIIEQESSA

**Q.** For `CC[C@H](C)[C@H](NC(=O)[C@@H]1CCCN1C(=O)CNC(=O)[C@H](Cc1ccccc1)NC(=O)[C@H](CC(N)=O)NC(=O)[C@H](CC(N)=O)NC(=O)[C@H](CO)NC(=O)[C@H](CO)NC(=O)[C@H](Cc1c[nH]cn1)NC(=O)[C@H](Cc1c[nH]cn1)NC(=O)[C@H](CC(C)C)NC(=O)[C@H](Cc1ccccc1)NC(=O)[C@H](CC(N)=O)NC(=O)[C@H](C)NC(=O)[C@H](CC(C)C)NC(=O)[C@H](CCCNC(=N)N)NC(=O)[C@H](CCC(N)=O)NC(=O)[C@@H](NC(=O)[C@H](C)NC(=O)[C@@H]1CSSC[C@H](NC(=O)[C@H](CCC(=O)O)NC(=O)CC[C@H](NC(=O)CCCCCCCCCCCCCCCCCCC(=O)O)C(=O)O)C(=O)N[C@@H](CC(N)=O)C(=O)N[C@@H]([C@@H](C)O)C(=O)N[C@@H](C)C(=O)N[C@@H]([C@@H](C)O)C(=O)N1)[C@@H](C)O)C(=O)N[C@@H](CC(C)C)C(=O)N1CCC[C@H]1C(=O)N1CCC[C@H]1C(=O)N[C@H](C(=O)N[C@@H](CC(N)=O)C(=O)N[C@H](C(=O)NCC(=O)N[C@@H](CO)C(=O)N[C@@H](CC(N)=O)C(=O)N[C@H](C(=O)N[C@@H](Cc1ccc(O)cc1)C(N)=O)[C@@H](C)O)C(C)C)[C@@H](C)O` [Example 51, N-alpha-[(S)-4-Carboxy-4-(19-carboxynonadecanoylamino)butyryl]-[Glu 1,His17]-pramlintide] ({C20 diacid-γGlu}-ECNTATCATQRLANFLHHSSNNFGPILPPTNVGSNTY-NH2; disulfide 2-7), which EC50 is on record?
**A.** 0.2 nM

**Q.** With `CC[C@H](C)[C@H](NC(=O)[C@@H]1CCCN1C(=O)CNC(=O)[C@H](Cc1ccccc1)NC(=O)[C@H](CC(N)=O)NC(=O)[C@H](CCC(N)=O)NC(=O)[C@H](CO)NC(=O)[C@H](CO)NC(=O)[C@H](Cc1c[nH]cn1)NC(=O)[C@H](CCCNC(=N)N)NC(=O)[C@H](CC(C)C)NC(=O)[C@H](Cc1ccccc1)NC(=O)[C@H](CC(N)=O)NC(=O)[C@H](C)NC(=O)[C@H](CC(C)C)NC(=O)[C@H](CCCNC(=N)N)NC(=O)[C@H](CCC(N)=O)NC(=O)[C@@H](NC(=O)[C@H](C)NC(=O)[C@@H]1CSSC[C@H](NC(=O)[C@H](CCCNC(=N)N)NC(=O)[C@H](Cc2c[nH]cn2)NC(=O)[C@H](Cc2c[nH]cn2)NC(=O)[C@H](CCC(=O)O)NC(=O)CC[C@H](NC(=O)CCCCCCCCCCCCCCCCCCC(=O)O)C(=O)O)C(=O)N[C@@H](CC(N)=O)C(=O)N[C@@H]([C@@H](C)O)C(=O)N[C@@H](C)C(=O)N[C@@H]([C@@H](C)O)C(=O)N1)[C@@H](C)O)C(=O)N[C@@H](CC(C)C)C(=O)N1CCC[C@H]1C(=O)N1CCC[C@H]1C(=O)N[C@H](C(=O)N[C@@H](CC(N)=O)C(=O)N[C@H](C(=O)NCC(=O)N[C@@H](CO)C(=O)N[C@@H](CC(N)=O)C(=O)N[C@H](C(=O)N[C@@H](Cc1ccc(O)cc1)C(N)=O)[C@@H](C)O)C(C)C)[C@@H](C)O` [Example 68, N-alpha-[(S)-4-Carboxy-4-(19-carboxynonadecanoylamino)butyryl]-Glu-His-His-[Arg1,Arg17,Gln21]-pramlintide] ({C20 diacid-γGlu}-EHHRCNTATCATQRLANFLRHSSQNFGPILPPTNVGSNTY-NH2; disulfide 5-10) as the molecule, how does the EC50 read?
**A.** 0.1 nM

**Q.** `CC[C@H](C)[C@H](NC(=O)[C@@H]1CCCN1C(=O)[C@H](CCC(=O)O)NC(=O)[C@H](Cc1ccccc1)NC(=O)[C@H](CC(N)=O)NC(=O)[C@H](CC(N)=O)NC(=O)[C@H](CO)NC(=O)[C@H](CO)NC(=O)[C@H](Cc1c[nH]cn1)NC(=O)[C@H](Cc1c[nH]cn1)NC(=O)[C@H](CC(C)C)NC(=O)[C@H](Cc1ccccc1)NC(=O)[C@H](CC(N)=O)NC(=O)[C@H](C)NC(=O)[C@H](CC(C)C)NC(=O)[C@H](CCCNC(=N)N)NC(=O)[C@H](CCC(N)=O)NC(=O)[C@@H](NC(=O)[C@H](C)NC(=O)[C@@H]1CSSC[C@H](NC(=O)CC[C@H](NC(=O)CCCCCCCCCCCCCCCCCCC(=O)O)C(=O)O)C(=O)N[C@@H](CC(N)=O)C(=O)N[C@@H]([C@@H](C)O)C(=O)N[C@@H](C)C(=O)N[C@@H]([C@@H](C)O)C(=O)N1)[C@@H](C)O)C(=O)N[C@@H](CC(C)C)C(=O)N1CCC[C@H]1C(=O)N1CCC[C@H]1C(=O)N[C@H](C(=O)N[C@@H](CC(N)=O)C(=O)N[C@H](C(=O)NCC(=O)N[C@@H](CO)C(=O)N[C@@H](CC(N)=O)C(=O)N[C@H](C(=O)N[C@@H](Cc1ccc(O)cc1)C(N)=O)[C@@H](C)O)C(C)C)[C@@H](C)O` [Example 44, N-alpha-[(S)-4-Carboxy-4-(19-carboxynonadecanoylamino)butyryl]-[His17,Glu24]-pramlintide (2-37)] ({C20 diacid-γGlu}-CNTATCATQRLANFLHHSSNNFEPILPPTNVGSNTY-NH2; disulfide 1-6) was tested. Which EC50 did it give?
**A.** 0.1 nM

**Q.** How did the EC50 turn out when `CC[C@H](C)[C@H](NC(=O)[C@@H]1CCCN1C(=O)CNC(=O)[C@H](Cc1ccccc1)NC(=O)[C@H](CC(N)=O)NC(=O)[C@H](CC(N)=O)NC(=O)[C@H](CO)NC(=O)[C@H](CO)NC(=O)[C@H](Cc1c[nH]cn1)NC(=O)[C@H](Cc1c[nH]cn1)NC(=O)[C@H](CC(C)C)NC(=O)[C@H](Cc1ccccc1)NC(=O)[C@H](CC(N)=O)NC(=O)[C@H](C)NC(=O)[C@H](CC(C)C)NC(=O)[C@H](CCCNC(=N)N)NC(=O)[C@H](CCC(N)=O)NC(=O)[C@@H](NC(=O)[C@H](C)NC(=O)[C@@H]1CSSC[C@H](NC(=O)[C@H](Cc2c[nH]cn2)NC(=O)[C@H](Cc2c[nH]cn2)NC(=O)[C@H](Cc2c[nH]cn2)NC(=O)CC[C@H](NC(=O)CCCCC(=O)O)C(=O)O)C(=O)N[C@@H](CC(N)=O)C(=O)N[C@@H]([C@@H](C)O)C(=O)N[C@@H](C)C(=O)N[C@@H]([C@@H](C)O)C(=O)N1)[C@@H](C)O)C(=O)N[C@@H](CC(C)C)C(=O)N1CCC[C@H]1C(=O)N1CCC[C@H]1C(=O)N[C@H](C(=O)N[C@@H](CC(N)=O)C(=O)N[C@H](C(=O)NCC(=O)N[C@@H](CO)C(=O)N[C@@H](CC(N)=O)C(=O)N[C@H](C(=O)N[C@@H](Cc1ccc(O)cc1)C(N)=O)[C@@H](C)O)C(C)C)[C@@H](C)O` [Example 61, N-alpha-[(S)-4-Carboxy-4-(5-carboxypentanoylamino)butyryl]-His-His-[His1,His17]-pramlintide] ({Adipoyl-γGlu}-HHHCNTATCATQRLANFLHHSSNNFGPILPPTNVGSNTY-NH2; disulfide 4-9) was run?
**A.** 0.04 nM

**Q.** With `CC[C@H](C)[C@H](NC(=O)[C@@H]1CCCN1C(=O)CNC(=O)[C@H](Cc1ccccc1)NC(=O)[C@H](CC(N)=O)NC(=O)[C@H](CC(N)=O)NC(=O)[C@H](CO)NC(=O)[C@H](CO)NC(=O)[C@H](Cc1c[nH]cn1)NC(=O)[C@H](Cc1c[nH]cn1)NC(=O)[C@H](CC(C)C)NC(=O)[C@H](Cc1ccccc1)NC(=O)[C@H](CC(N)=O)NC(=O)[C@H](C)NC(=O)[C@H](CC(C)C)NC(=O)[C@H](CCCNC(=N)N)NC(=O)[C@H](CCC(N)=O)NC(=O)[C@@H](NC(=O)[C@H](C)NC(=O)[C@@H]1CSSC[C@H](NC(=O)[C@H](CCCNC(=N)N)NC(=O)[C@H](Cc2c[nH]cn2)NC(=O)[C@H](Cc2c[nH]cn2)NC(=O)CC[C@H](NC(=O)CCCCCCCCCCCCCCCCCCC(=O)O)C(=O)O)C(=O)N[C@@H](CC(N)=O)C(=O)N[C@@H]([C@@H](C)O)C(=O)N[C@@H](C)C(=O)N[C@@H]([C@@H](C)O)C(=O)N1)[C@@H](C)O)C(=O)N[C@@H](CC(C)C)C(=O)N1CCC[C@H]1C(=O)N1CCC[C@H]1C(=O)N[C@H](C(=O)N[C@@H](CC(N)=O)C(=O)N[C@H](C(=O)NCC(=O)N[C@@H](CO)C(=O)N[C@@H](CC(N)=O)C(=O)N[C@H](C(=O)N[C@@H](Cc1ccc(O)cc1)C(N)=O)[C@@H](C)O)C(C)C)[C@@H](C)O` [Example 71, N-alpha-[(S)-4-Carboxy-4-(19-carboxynonadecanoylamino)butyryl]-His-His-[Arg1,His17]-pramlintide] ({C20 diacid-γGlu}-HHRCNTATCATQRLANFLHHSSNNFGPILPPTNVGSNTY-NH2; disulfide 4-9) as the molecule, how does the EC50 read?
**A.** 0.09 nM
